Assays:
Format in all cases: in vivo
[1] = tested on: Alopecurus myosuroides (ALOMY); experiment: Pre-emergence herbicidal glasshouse test on Alopecurus myosuroides; details: pre-emergence; 1000 g/h; evaluated after 13 days
In short: (§1)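 Scoring scale: 5=80-100%, 4=60-79%, 3=40-59%, 2=20-39%, 1=0-19% damage, assessed on day 13. Compound sprayed at 1000 g/h on soil-grown plants (day 1 pre-, day 8 post-emergence) kept at 24/16 °C, 14 h light.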

Setaria faberi (SETFA) [2] = experiment: Pre-emergence herbicidal glasshouse test on Setaria faberi; details: pre-emergence; 1000 g/h; evaluated after 13 days
In short: as §1

[3] = tested on: Echinochloa crus-galli (ECHCG); experiment: Pre-emergence herbicidal glasshouse test on Echinochloa crus-galli; details: pre-emergence; 1000 g/h; evaluated after 13 days
In short: as §1

Solanum nigrum (SOLNI) [4] = experiment: Pre-emergence herbicidal glasshouse test on Solanum nigrum; details: pre-emergence; 1000 g/h; evaluated after 13 days
In short: as §1

[5] = tested on: Amaranthus retoflexus (AMARE); experiment: Pre-emergence herbicidal glasshouse test on Amaranthus retoflexus; details: pre-emergence; 1000 g/h; evaluated after 13 days
In short: as §1

[6] = tested on: Ipomoea hederacea (IPOHE); experiment: Pre-emergence herbicidal glasshouse test on Ipomoea hederacea; details: pre-emergence; 1000 g/h; evaluated after 13 days
In short: as §1

[7] = tested on: Alopecurus myosuroides (ALOMY); experiment: Post-emergence herbicidal glasshouse test on Alopecurus myosuroides; details: post-emergence; 1000 g/h; evaluated after 13 days
In short: as §1

Setaria faberi (SETFA) [8] = experiment: Post-emergence herbicidal glasshouse test on Setaria faberi; details: post-emergence; 1000 g/h; evaluated after 13 days
In short: as §1

[9] = tested on: Echinochloa crus-galli (ECHCG); experiment: Post-emergence herbicidal glasshouse test on Echinochloa crus-galli; details: post-emergence; 1000 g/h; evaluated after 13 days
In short: as §1

Solanum nigrum (SOLNI) [10] = experiment: Post-emergence herbicidal glasshouse test on Solanum nigrum; details: post-emergence; 1000 g/h; evaluated after 13 days
In short: as §1

[11] = tested on: Amaranthus retoflexus (AMARE); experiment: Post-emergence herbicidal glasshouse test on Amaranthus retoflexus; details: post-emergence; 1000 g/h; evaluated after 13 days
In short: as §1

[12] = tested on: Ipomoea hederacea (IPOHE); experiment: Post-emergence herbicidal glasshouse test on Ipomoea hederacea; details: post-emergence; 1000 g/h; evaluated after 13 days
In short: as §1

Row | Compound | PRE Application ALOMY herbicidal damage (five point scale) [1] | PRE Application SETFA herbicidal damage (five point scale) (Setaria faberi (SETFA) [2]) | PRE Application ECHCG herbicidal damage (five point scale) [3] | PRE Application SOLNI herbicidal damage (five point scale) (Solanum nigrum (SOLNI) [4]) | PRE Application AMARE herbicidal damage (five point scale) [5] | PRE Application IPOHE herbicidal damage (five point scale) [6] | POST Application ALOMY herbicidal damage (five point scale) [7] | POST Application SETFA herbicidal damage (five point scale) (Setaria faberi (SETFA) [8]) | POST Application ECHCG herbicidal damage (five point scale) [9] | POST Application SOLNI herbicidal damage (five point scale) (Solanum nigrum (SOLNI) [10]) | POST Application AMARE herbicidal damage (five point scale) [11] | POST Application IPOHE herbicidal damage (five point scale) [12]
1 | Cn1ncc(-n2ccc(C(F)(F)F)cc2=O)c(O)c1=O [Compound 1.078] | 2 (2=20-39% damage) | 5 (5=80-100% damage) | 5 (5=80-100% damage) | 5 (5=80-100% damage) | 5 (5=80-100% damage) | 2 (2=20-39% damage) | 1 (1=0-19% damage) | 5 (5=80-100% damage) | 5 (5=80-100% damage) | 5 (5=80-100% damage) | 5 (5=80-100% damage) | 4 (4=60-79% damage)
2 | CCSC(=O)Oc1c(-c2ccc(C(F)(F)F)cc2S(C)(=O)=O)cnn(C)c1=O [Compound 3.004, [2-methyl-5-[2-methylsulfonyl-4-(trifluoromethyl)phenyl]-3-oxo-pyridazin-4-yl]ethylsulfanylformate] | 5 (5=80-100% damage) | 5 (5=80-100% damage) | 5 (5=80-100% damage) | 5 (5=80-100% damage) | 5 (5=80-100% damage) | 5 (5=80-100% damage) | 5 (5=80-100% damage) | 5 (5=80-100% damage) | 5 (5=80-100% damage) | 5 (5=80-100% damage) | 5 (5=80-100% damage) | 5 (5=80-100% damage)
3 | Cn1ncc(-n2ccc(C(F)(F)F)c(-c3cccc(Cl)c3)c2=O)c(O)c1=O [Compound 1.037] | 4 (4=60-79% damage) | 4 (4=60-79% damage) | 5 (5=80-100% damage) | 5 (5=80-100% damage) | 5 (5=80-100% damage) | 1 (1=0-19% damage) | 4 (4=60-79% damage) | 4 (4=60-79% damage) | 4 (4=60-79% damage) | 5 (5=80-100% damage) | 5 (5=80-100% damage) | 4 (4=60-79% damage)
4 | C#Cn1ncc(-c2ccc(Cl)cc2S(C)(=O)=O)c(O)c1=O [Compound 2.011] | 5 (5=80-100% damage) | 5 (5=80-100% damage) | 5 (5=80-100% damage) | 5 (5=80-100% damage) | 5 (5=80-100% damage) | 5 (5=80-100% damage) | 5 (5=80-100% damage) | 5 (5=80-100% damage) | 5 (5=80-100% damage) | 5 (5=80-100% damage) | 5 (5=80-100% damage) | 5 (5=80-100% damage)
5 | Cc1nc(C(F)(F)F)ccc1-c1cnn(C)c(=O)c1O [Compound 1.067] | 1 (1=0-19% damage) | 1 (1=0-19% damage) | 5 (5=80-100% damage) | 3 (3=40-59% damage) | 4 (4=60-79% damage) | 2 (2=20-39% damage) | 2 (2=20-39% damage) | 4 (4=60-79% damage) | 5 (5=80-100% damage) | 5 (5=80-100% damage) | 5 (5=80-100% damage) | 5 (5=80-100% damage)
6 | Cn1ncc(-c2ccccc2S(=O)(=O)C(F)(F)F)c(O)c1=O [Compound 1.056] | 5 (5=80-100% damage) | 1 (1=0-19% damage) | 5 (5=80-100% damage) | 4 (4=60-79% damage) | 5 (5=80-100% damage) | 1 (1=0-19% damage) | 5 (5=80-100% damage) | 5 (5=80-100% damage) | 5 (5=80-100% damage) | 5 (5=80-100% damage) | 5 (5=80-100% damage) | 5 (5=80-100% damage)
7 | CCCn1ncc(-c2c(Cl)ccc(Cl)c2Cl)c(O)c1=O [Compound 1.128] | 1 (1=0-19% damage) | 1 (1=0-19% damage) | 1 (1=0-19% damage) | 1 (1=0-19% damage) | 1 (1=0-19% damage) | 1 (1=0-19% damage) | 1 (1=0-19% damage) | 2 (2=20-39% damage) | 1 (1=0-19% damage) | 4 (4=60-79% damage) | 1 (1=0-19% damage) | 3 (3=40-59% damage)
8 | Cn1ncc(-n2ccc(C(F)(F)F)c(-c3ccccc3)c2=O)c(O)c1=O [Compound 1.054] | 5 (5=80-100% damage) | 5 (5=80-100% damage) | 5 (5=80-100% damage) | 5 (5=80-100% damage) | 5 (5=80-100% damage) | 3 (3=40-59% damage) | 5 (5=80-100% damage) | 5 (5=80-100% damage) | 5 (5=80-100% damage) | 5 (5=80-100% damage) | 5 (5=80-100% damage) | 4 (4=60-79% damage)

Reference: patent US9693556B2, “Herbicidal pyridazinone derivatives” (SYNGENTA LIMITED, priority 2011, dated 2017)
